IC50 data for 17 compounds are collected here from US20230174485A1, “LIPOXYGENASE INHIBITORS” (SRI International, priority 2020, published 2023).

A word on the IC50: it is the point on the concentration scale where inhibition reaches its midpoint.

Holding throughout (type): biochemical
Assay [1] addresses T1, recombinant 15-LOX enzyme (Homo sapiens, UniProt P16050).
T1 sequence (P16050 1-662): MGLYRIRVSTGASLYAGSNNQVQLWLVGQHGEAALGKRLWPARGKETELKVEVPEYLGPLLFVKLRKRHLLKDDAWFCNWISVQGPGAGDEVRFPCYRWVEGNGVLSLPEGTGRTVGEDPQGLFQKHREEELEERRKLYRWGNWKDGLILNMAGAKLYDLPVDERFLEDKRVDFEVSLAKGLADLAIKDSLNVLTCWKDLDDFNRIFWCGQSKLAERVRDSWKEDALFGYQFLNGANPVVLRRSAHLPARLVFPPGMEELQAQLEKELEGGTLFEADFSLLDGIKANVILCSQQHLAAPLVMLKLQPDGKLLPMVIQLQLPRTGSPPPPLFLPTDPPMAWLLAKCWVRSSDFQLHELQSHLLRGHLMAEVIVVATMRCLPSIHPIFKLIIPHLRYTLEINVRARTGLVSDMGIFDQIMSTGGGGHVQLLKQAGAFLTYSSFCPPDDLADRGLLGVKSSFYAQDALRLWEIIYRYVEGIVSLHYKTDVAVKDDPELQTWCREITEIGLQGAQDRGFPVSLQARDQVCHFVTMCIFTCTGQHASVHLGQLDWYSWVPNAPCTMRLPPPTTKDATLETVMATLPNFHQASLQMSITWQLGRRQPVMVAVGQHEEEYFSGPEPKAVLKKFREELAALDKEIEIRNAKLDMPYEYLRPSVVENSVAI
Briefly: 15-LOX fluorescent assay. Conditions: several values in one cell = repeat determinations. Here is the method: (§1) 12-LOX/15-LOX Fluorescent Assay
(§2) The enzyme assay (100 ul) contained 50 mM Tris, pH 7.5, 0.05% Tween-20, 20 μM AA/LA, 1 μM DHR123, and 100 nM recombinant 12-LOX enzyme/50 nM recombinant 15-LOX enzyme. Inhibitors (dissolved in DMSO) were plated at 1 μL into 96-well assay microplates followed by a 40 μL addition of a solution containing 12-LOX/15-LOX enzyme. Enzyme was pre-incubated with compounds for 15 mins. The assay was initiated by the addition of a 40 μL substrate solution containing AA/LA, and 20 μL addition of a solution containing DHR123. Enzymatic reaction proceeded for 30 min with kinetic reading at 500 nm excitation & 536 nm emission in SpectraMax Paradigm (MolecularDevice). Percent inhibition was calculated for each compound dose for IC50 curve fitting using 4 Parameter Logistic Model or Sigmoidal Dose-Response Model.

Assay [2] has as its target T2, recombinant 5-LOX (Homo sapiens, UniProt P09917).
T2 sequence (P09917 1-674): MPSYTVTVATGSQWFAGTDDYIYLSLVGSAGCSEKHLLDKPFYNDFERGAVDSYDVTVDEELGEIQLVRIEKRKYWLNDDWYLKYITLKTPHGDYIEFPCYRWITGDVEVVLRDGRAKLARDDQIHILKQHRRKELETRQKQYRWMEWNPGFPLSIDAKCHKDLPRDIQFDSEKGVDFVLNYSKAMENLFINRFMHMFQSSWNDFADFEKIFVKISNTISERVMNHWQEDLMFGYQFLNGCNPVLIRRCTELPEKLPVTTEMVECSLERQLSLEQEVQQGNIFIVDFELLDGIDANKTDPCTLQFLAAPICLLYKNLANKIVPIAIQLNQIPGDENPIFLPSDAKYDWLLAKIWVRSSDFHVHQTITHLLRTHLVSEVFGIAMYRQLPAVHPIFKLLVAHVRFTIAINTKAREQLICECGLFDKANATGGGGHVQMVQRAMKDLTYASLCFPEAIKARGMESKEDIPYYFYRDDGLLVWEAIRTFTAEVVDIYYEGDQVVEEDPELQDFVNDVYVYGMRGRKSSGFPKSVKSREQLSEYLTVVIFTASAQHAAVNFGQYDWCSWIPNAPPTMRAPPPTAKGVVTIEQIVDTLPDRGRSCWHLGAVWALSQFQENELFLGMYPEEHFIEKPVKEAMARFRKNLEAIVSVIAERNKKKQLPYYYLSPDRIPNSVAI
The assay can be described thus: 5-LOX fluorescent assay. The conditions noted are these: several values in one cell = repeat determinations; read-out: IC50 (μM) values for in vitro lipoxygenase inhibition, 5-LOX. As for the experimental part: 5-LOX FI assay Fluorescent Assay
The enzyme assay (100 μL) contained 50 mM Tris, pH 7.5, 0.1 mM EDTA, 0.3 mM CaCl2, 20 μM AA, 100 μM ATP, 1 μM DHR123, and recombinant 5-LOX cell lysate (0.5 μL/100 μL). Inhibitors (dissolved in DMSO) were plated at 1 μL into 96-well assay microplates followed by a 40 μL addition of a solution containing 5-LOX enzyme. Enzyme was pre-incubated with compounds for 15 mins. The assay was initiated by the addition of a 40 μL substrate solution containing AA and ATP, and 20 μL addition of a solution containing DHR123. Enzymatic reaction proceeded for 30 min with kinetic reading at 500 nm excitation & 536 nm emission in SpectraMax Paradigm (MolecularDevice). Percent inhibition was calculated for each compound dose for IC50 curve fitting using 4 Parameter Logistic Model or Sigmoidal Dose-Response Model.

Assay [3] addresses T3, recombinant 12-LOX enzyme (Homo sapiens, UniProt P18054).
T3 sequence (P18054 1-663): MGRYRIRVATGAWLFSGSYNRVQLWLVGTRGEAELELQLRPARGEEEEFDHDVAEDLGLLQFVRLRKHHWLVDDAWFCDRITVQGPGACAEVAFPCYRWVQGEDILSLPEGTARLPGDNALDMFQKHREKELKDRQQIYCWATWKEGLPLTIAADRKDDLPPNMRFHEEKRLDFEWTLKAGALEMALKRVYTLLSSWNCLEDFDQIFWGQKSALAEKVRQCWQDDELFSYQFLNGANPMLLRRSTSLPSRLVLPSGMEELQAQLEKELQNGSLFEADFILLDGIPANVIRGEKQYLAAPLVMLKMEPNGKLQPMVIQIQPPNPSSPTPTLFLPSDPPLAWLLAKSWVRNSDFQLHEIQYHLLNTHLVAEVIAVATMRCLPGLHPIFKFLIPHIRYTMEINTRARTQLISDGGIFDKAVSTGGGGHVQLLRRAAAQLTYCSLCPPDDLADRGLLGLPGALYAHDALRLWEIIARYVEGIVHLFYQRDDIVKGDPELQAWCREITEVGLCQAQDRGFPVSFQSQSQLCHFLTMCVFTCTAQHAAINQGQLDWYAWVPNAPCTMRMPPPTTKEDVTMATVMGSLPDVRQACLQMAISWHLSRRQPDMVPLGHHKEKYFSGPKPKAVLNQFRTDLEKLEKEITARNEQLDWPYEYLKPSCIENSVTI
Briefly: 12-LOX fluorescent assay. The conditions noted are these: several values in one cell = repeat determinations; read-out: IC50 (μM) values for in vitro lipoxygenase inhibition, 12-LOX. Here is the method: as §1, §2

The mark [4] stands for this setting: read-out: IC50 (μM) values for in vitro lipoxygenase inhibition, 15-LOX.
Setting [5] is: IC50 (μM) values for in vitro lipoxygenase inhibition, 15-LOX.

“And” between values parts separate entries of the source, which are not always exact repeats. Equal values may be shown once. Where a name gives a salt, the structure may show the parent alone. Read-outs that look alike come from different tables or passages of the source. A value given as a limit tells only on which side of the number the result lay.

As for `c1ccc(N(CCCn2cncn2)c2ccc3c(c2)[nH]c2ccccc23)cc1` [SS20308-0060-01, N-(3-(1H-1,2,4-triazol-1-yl)propyl)-N-phenyl-9H-carbazol-2-amine], the concentration for half-maximal inhibition (IC50) in assay [1] (setting [4]) was 2.19 µM; in assay [2], 0.62 µM; in assay [3], 0.99 µM.

With `c1ccc(-c2cc3c(cc2NCCn2cncn2)[nH]c2ccccc23)cc1` [SS20308-0061-01, N-(2-(1H-1,2,4-triazol-1-yl)ethyl)-3-phenyl-9H-carbazol-2-amine], the IC50 is 0.94 µM and 1.33 µM in assay [1] (setting [5]); 0.36 µM and 0.79 µM in assay [2]; 0.19 µM and 0.29 µM in assay [3].

Consider `c1ccc2c(c1)[nH]c1cc3c(ccn3CCn3cncn3)cc12` [SS20308-0062-01, 1-(2-(1H-1,2,4-triazol-1-yl)ethyl)-1,9-dihydropyrrolo[2,3-b]carbazole], for which the half-inhibitory concentration (IC50) is 0.94 µM and 1.68 µM in assay [1] (setting [4]); 0.53 µM and 0.42 µM in assay [2]; 0.19 µM and 0.24 µM in assay [3].

For `CN(C)CCOc1c2c(cc3[nH]c4ccccc4c13)[nH]c1ccccc12` [SS20308-0063-01, 2-(5,7-dihydroindolo[2,3-b]carbazol-12-yloxy)-N,N-dimethylethanamine], the IC50 in assay [1] (setting [5]) is 0.29 µM and 0.9 µM; in assay [2], 0.53 µM and 0.69 µM; in assay [3], 0.46 µM and 0.56 µM.

In the case of `CN(C)CCOc1c2[nH]c3ccccc3c2cc2[nH]c3ccccc3c12` [SS20308-0065-01, 2-(5,11-dihydroindolo[3,2-b]carbazol-6-yloxy)-N,N-dimethylethanamine], the IC50 in assay [1] (setting [4]) was 0.03 µM; in assay [2] it was 0.01 µM and 0.04 µM; in assay [3], 0.02 µM and 0.06 µM.

`CN(C)CCCc1c(O)ccc2c1[nH]c1ccc(F)cc12` [SS20308-0068-01, 1-(3-(dimethylamino)propyl)-6-fluoro-9H-carbazol-2-ol]: the IC50 in assay [1] (setting [5]) is 1.76 µM; in assay [2], 5.63 µM; in assay [3], 0.77 µM.

Regarding `CN(C)CCOc1c(N)cc(Cl)c2c1[nH]c1ccc(F)cc12` [SS20308-0069-01, 4-chloro-1-(2-(dimethylamino)ethoxy)-6-fluoro-9H-carbazol-2-amine], the IC50 amounted to 8.34 µM in assay [1] (setting [4]), 14.8 µM in assay [2] and 7.93 µM in assay [3].

Turning to `CN(C)CCOc1cc2c3ncccc3[nH]c2c2c1[nH]c1cccnc12` [SS20308-0070-01], the values for the IC50 in assay [1] (setting [4]), in assay [2] and in assay [3] were 4.53 µM, 9.17 µM and 6.32 µM, respectively.

Regarding `CN(C)CCOc1c(-c2ccccc2N)ccc2c1[nH]c1ccccc12` [SS20308-0073-01, 2-(1-(2-(dimethylamino)ethoxy)-9H-carbazol-2-yl)aniline dihydrochloride], the IC50 in assay [1] (setting [5]) is 26.1 µM; in assay [2] it was 14.4 µM; in assay [3], 49.2 µM.

With `CN(C)CCOc1cc2c(cc1-c1ccccc1[N+](=O)[O-])[nH]c1ccccc12` [SS20308-0076-01, N,N-dimethyl-2-(2-(2-nitrophenyl)-9H-carbazol-3-yloxy)ethanamine], the half-maximal inhibitory concentration (IC50) in assay [1] (setting [4]) turned out to be 5.7 µM; in assay [2], 4.54 µM; in assay [3], 3.59 µM.

With `CN(C)CCOc1c(-c2ccccc2[N+](=O)[O-])ccc2c1[nH]c1ccccc12` [SS20308-0077-01, N,N-dimethyl-2-(2-(2-nitrophenyl)-9H-carbazol-1-yloxy)ethanamine], the IC50 in assay [1] (setting [4]) was found to be 2.15 µM; in assay [2] it was 2.66 µM; in assay [3], 2.32 µM.

As to `Fc1ccc2[nH]c3c(OCCn4cncn4)cc(Oc4ccccc4)cc3c2c1` [SS20308-0084-01, 1-(2-(1H-1,2,4-triazol-1-yl)ethoxy)-6-fluoro-3-phenoxy-9H-carbazole], the IC50 in assay [1] (setting [5]) came out at 3.36 µM; in assay [2] it was 6.79 µM; in assay [3] it was 5.42 µM.

For the compound `c1ccc(-c2c(NCCn3cncn3)ccc3c2[nH]c2ccccc23)cc1` [SS20308-0085-01, N-(2-(1H-1,2,4-triazol-1-yl)ethyl)-1-phenyl-9H-carbazol-2-amine], the half-inhibitory concentration (IC50) is 1.19 µM and 2.23 µM in assay [1] (setting [5]); 0.57 µM and 1.6 µM in assay [2]; 0.32 µM and 0.92 µM in assay [3].

On to `CN(C)CCOc1c(CNc2ccccc2)ccc2c1[nH]c1ccccc12` [SS20308-0086-01, N-((1-(2-(dimethylamino)ethoxy)-9H-carbazol-2-yl)methyl)aniline], for which the IC50 in assay [1] (setting [4]) came to 0.42 µM; in assay [2], 0.62 µM; in assay [3] it was 0.87 µM.

Take `CN(C)CCCOc1cccc2c1-c1[nH]c3ccccc3c1CS2` [SS20308-0090-01, 3-(6,11-dihydrothiochromeno[4,3-b]indol-1-yloxy)-N,N-dimethylpropan-1-amine]: the IC50 worked out at 0.69 µM in assay [1] (setting [4]), 0.47 µM in assay [2] and 0.43 µM in assay [3].

For `CN(C)CCOc1ccc(Cl)c2c1-c1[nH]c3ccc(F)cc3c1CS2` [SS20308-0093-01, 2-(4-chloro-8-fluoro-6,11-dihydrothiochromeno[4,3-b]indol-1-yloxy)-N,N-dimethylethanamine], the figures for the IC50 in assay [1] (setting [4]), in assay [2] and in assay [3] were 2.37 µM, 1.46 µM and 1.69 µM, respectively.

Take `Cc1c2[nH]c3ccccc3c2c(CCCN(C)C)c2[nH]c3ccccc3c12` [SS20308-0100-01, N,N-dimethyl-3-(12-methyl-5,11-dihydroindolo[3,2-b]carbazol-6-yl)propan-1-amine]: the IC50 in assay [1] (setting [4]), in assay [2] and in assay [3] was > 100 µM each time.
